{"source": "paper PMC2703631", "about": "“Identification of non-muscle myosin heavy chain as a substrate for Cdk5 and tool for drug screening” (Journal of Biomedical Science, 2009)", "key": {"[1]": {"target": "recombinant human Cdk5/p25 (Homo sapiens, UniProt Q00535)", "sequence (Q00535 whole entry)": "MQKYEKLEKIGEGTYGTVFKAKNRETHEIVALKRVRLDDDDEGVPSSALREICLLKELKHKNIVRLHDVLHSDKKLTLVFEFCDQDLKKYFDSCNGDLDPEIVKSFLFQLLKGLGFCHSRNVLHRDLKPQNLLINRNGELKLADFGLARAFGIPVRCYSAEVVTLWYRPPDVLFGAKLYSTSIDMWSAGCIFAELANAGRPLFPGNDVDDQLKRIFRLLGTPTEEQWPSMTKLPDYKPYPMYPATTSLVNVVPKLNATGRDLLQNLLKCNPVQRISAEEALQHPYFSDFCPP", "sequence (Q15078 99-307 partner limits assumed)": "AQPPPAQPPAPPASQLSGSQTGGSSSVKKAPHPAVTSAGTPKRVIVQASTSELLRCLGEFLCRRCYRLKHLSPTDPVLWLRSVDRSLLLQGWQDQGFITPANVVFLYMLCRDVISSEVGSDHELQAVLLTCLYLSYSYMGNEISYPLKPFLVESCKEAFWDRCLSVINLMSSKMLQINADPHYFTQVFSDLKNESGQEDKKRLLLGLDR", "assay": "Scintillation Proximity Assay (SPA), peptide substrate phosphorylation", "assay_type": "biochemical", "conditions": "recombinant human Cdk5/p25 3.3 nM, 2 μM ATP, biotinylated peptide substrate; read-out: IC50, inhibition of peptide substrate phosphorylation in SPA assay", "protocol": "(§1) The inhibition curves were analysed by non-linear regression using Graph Pad Prism.\nThis biochemical assay measures inhibition of the recombinant human Cdk5/p25 protein kinase by different compounds with a synthetic peptide as a substrate."}, "[2]": {"system": "Cdk5/p25 transfected HEK293 cells", "assay": "NMHC-B (pSerCdk substrate) phosphorylation by Western blot in Cdk5/p25 transfected HEK293 cells", "assay_type": "cell-based, human", "conditions": "for IC50: Homo sapiens, 4 hours treatment, Western blot, read-out: IC50, inhibition of pSerCdk substrate (NMHC-B) phosphorylation", "protocol": "as §1"}, "[3]": {"assay": "Solubility (remark in discussion)", "assay_type": "physicochemical", "conditions": "stated as likely cause of precipitation at higher concentrations"}, "[4]": {"system": "human neuroblastoma SH-SY5Y cells", "assay": "pSerCdk substrate (NMHC-B) phosphorylation by Western blot in SH-SY5Y cells", "assay_type": "cell-based", "conditions": "undifferentiated and RA-differentiated SH-SY5Y cells, 10 μM, 4 hours", "protocol": "SH-SY5Y cells were grown in medium with equal amount of Minimum Essential Medium (MEM, InVitrogen, Sweden) and Nutrient Mixture Ham's F-12 (InVitrogen, Sweden), supplemented with 1% non-essential amino acids and with heat-inactivated FCS. Cells were plated at a density of 4.0 × 10^4 cells/cm^2 in 6-well culture dishes using cell medium with 10% FCS. For differentiation, the cells were treated 6 days with 10 μM all-trans-retinoic acid (RA, Sigma, Sweden) in the medium containing 1% FCS. In some experiments the cells were left undifferentiated and these cells were cultured in medium containing 10% FCS. […]\nHEK293 cells were lysed in buffer containing 10 mM Tris-HCl pH 7.2, 150 mM NaCl, 2 mM EDTA, 50 mM NaF, 1 mM Na3O4V, 0.5% NP-40 and 1 complete protease inhibitor cocktail tablet (Roche Diagnostics Scandinavia AB, Sweden)/10 ml buffer. […] The protein content in the supernatants was measured using BCA Protein Assay kit (Pierce Biotechnology, Rockford, IL, USA). […] Average density of the bands was measured in Fluor-S™MultiImager (Bio-Rad Laboratories AB, Sweden) by using Quantity One software. The inhibition curves were analysed by non-linear regression using Graph Pad Prism.\nWe also investigated NMHC-B phosphorylation by Cdk5 in human neuroblastoma SH-SY5Y cells. […] Verification that the 200 kDa pSerCdk band detected in SH-SY5Y cells was in fact NMHC-B was done by immunoprecipitation."}}}
{"compound": "CCn1c(=O)ccc2cnc(Nc3ccc(F)cc3)nc21", "note": "[WL compound, 7-ethyl-4-[(4-fluorophenyl)amino]-3,5,7-triaza bicyclo [4.4.0.] deca-1,3,5,9-tetraen-8-one]", "values": [{"measurement": "IC50", "setting": "[1]", "value": 45, "unit": "nM"}, {"measurement": "IC50", "setting": "[2]", "value": 2550, "unit": "nM"}]}
{"compound": "Cc1c(C(=O)c2ccc(Cl)cc2)cc(C(C)(C)C)c(O)c1C(=O)O", "note": "[5-(4-chlorobenzoyl)-2-hydroxy-6-methyl-3-tert-butyl-benzoic acid]", "values": [{"measurement": "inhibition of pSerCdk substrate phosphorylation", "setting": "[2]; data not shown", "value": "did not show inhibition"}]}
{"compound": "NS(=O)(=O)c1cc(-c2nc3ccc(Cl)cc3s2)cs1", "note": "[AZ compound, 4-(6-chlorobenzothiazol-2-yl)thiophene-2-sulfonamide]", "values": [{"measurement": "IC50", "setting": "[1]", "value": 355, "unit": "nM"}, {"measurement": "IC50", "setting": "[2]", "value": 4360, "unit": "nM"}, {"measurement": "solubility", "setting": "[3]", "value": "poor solubility"}]}
{"compound": "CC[C@H](CO)Nc1nc(NCc2ccccc2)c2ncn(C(C)C)c2n1", "note": "[Roscovitine]", "values": [{"measurement": "phosphorylation of 200 kDa pSerCdk substrate band", "setting": "[4]", "value": "completely inhibited"}]}
